According to patent publication US10195208B2, “Combination therapy” (Novartis AG, priority 2014, dated 2019):
Where “and” joins values, the source holds several entries; their conditions need not be identical. Equal entries are not always repeated.

Tests used:
HCC827 = experiment: Cell proliferation assay (CellTiter-Glo), dose matrix combination, HCC827 parental; format: cell-based, human; settings: HCC827 parental line, 72 hours
Method: HCC827 was obtained from ATCC. HCC827 GR5 (resistant to Gefitinib) was obtained from Jeff Engleman lab at Massachusetts General Hospital. Both cells were cultured in RPMI-1640 (ATCC, #30-2001) with 10% FBS (Thermo scientific, #SH30071.03) and maintained in a 37° C., 5% CO2 incubator. Cells were passaged twice a week using TrypLE™ Express (Invitrogen, #12604-013), an animal origin-free recombinant enzyme used for dissociating adherent mammalian cells compare to the regular trypsin.
Cell viability was determined by measuring cellular ATP content using the CellTiter-Glo® (CTG) luminescent cell viability assay (Promega #G7573) according to the manufacturer's protocol. […] At the end of the drug treatment, 100 ul CTG reagent was added to each well to lyse the cells, and luminescence signals were recorded in the Envision plate reader (Perkin Elmer).
To evaluate the combination effect in a non-bias way and to identify synergistic effect at all possible concentrations, the combination studies were conducted with a “dose matrix”, where a combination is tested in all possible permutations of serially-diluted compounds. […] The synergistic interaction was analyzed using Chalice software (CombinatoRx, Cambridge Mass.). Synergy was calculated by comparing a combination's response to those of its single agents, against the drug-with-itself dose-additive reference model. […]

[1] = Tolerability (body weight) in Compound A resistant HCC827 mouse xenograft model; settings: for Final BW (g) mean ± SD: day 14; for BW (%) mean, percent body weight change: day 14 versus day of treatment initiation
Method: INC280-AA-3 was formulated in 0.25% MC (methylcellulose) 0.05% Tween 80 in water, solution. […] Animals were weighed on dosing days and doses were body weight adjusted. Tumor volumes were measured by digital caliper 3 times a week and body weights of all animals were recorded throughout the study.
Body weight was monitored daily and the % change in body weight was calculated as (BWcurrent−BWinitial)/(BWinitial)×100. Data is presented as percent body weight change from the day of treatment initiation.

[2] = system: EGFR and cMET phosphorylation; experiment: Acute PD western blot of pEGFR and pMET in resistant NCI-HCC827 tumors; format: in vivo, SCID beige mice; settings: single dose; Compound A 30 mg/kg, INC280 10 mg/kg; tumors taken 6 hours post dose
From the text: SCID beige mice bearing the Erlotinib resistant tumors (Animals 2-5), n=1 per group, a total of 4 groups and randomized 50 days post tumor fragment implantation with an average tumor volume of 1236.18 mm^3 and SD of 316.57 mm^3. Compound A resistant HCC827 tumors ([…]) were randomized into 4 groups (n=3 mice per group) 24 days post tumor fragment implantation with an average tumor volume of 963.24 mm^3 with SD 179.56 mm^3. Animals in each group received once daily oral administration of Compound A at 30 mg/kg or twice daily INC280-AA-3 at 10 mg/kg alone or in combination.
Evaluation of target inhibition of pEGFR and pMET were done by western blot analysis. 40 […] of tumor lysate proteins were electrophoresed per sample using Criterion 4-12% Bis-Tris gels (Bio-Rad, Cat #345-0124). Upon completion of protein transfer, membranes were incubated with 5% BSA (Sigma) in TBST (25 mM Tris, 150 mM NaCl, 0.1% Tween-20) for 1 h at room temperature to block non-specific binding. […]

[3] = system: Compound A resistant NSCLC HCC827 tumor; experiment: Efficacy study in Compound A resistant HCC827 mouse xenograft model (GNF-11-308-138); format: in vivo, SCID beige mice; settings: for Individual tumor volume: single animals; for Tumor volume, group Mean: n=6; for Mean initial Tumor Volume (mm^3 ± SE): initial day of dosing
[4] = Compound A 30 mg/kg QD, INC280 10 mg/kg BID
[5] = day 0 post dosing (day 22 post implant)
[6] = day 2 post dosing (day 24 post implant)
[7] = day 5 post dosing (day 27 post implant)
[8] = day 7 post dosing (day 29 post implant)
[9] = day 9 post dosing (day 31 post implant)
[10] = day 12 post dosing (day 34 post implant)
[11] = day 14, Compound A 30 mg/kg QD, INC280 10 mg/kg BID, oral
[12] = day 14 post dosing (day 36 post implant)
[13] = Compound A 30 mg/kg QD, INC280 10 mg/kg BID, oral

Structure (SMILES) | Final BW (g) mean ± SD [1, 4] | BW (%) mean, percent body weight change [1] | Initial BW (g) mean ± SD [1, 4] | inhibition of EGFR and cMET phosphorylation in tumor lysates (western) [2] | Individual tumor volume [3, 5] | Tumor volume, group Mean ([3]; day 0 post dosing) | Individual tumor volume [3, 6] | Tumor volume, group Mean ([3]; day 2 post dosing) | Individual tumor volume [3, 7] | Tumor volume, group Mean ([3]; day 5 post dosing) | Individual tumor volume [3, 8] | Tumor volume, group Mean ([3]; day 7 post dosing) | Individual tumor volume [3, 9] | Tumor volume, group Mean ([3]; day 9 post dosing) | Individual tumor volume [3, 10] | Tumor volume, group Mean ([3]; day 12 post dosing) | Mean final Tumor Volume (mm^3 ± SE) [3, 11] | Individual tumor volume [3, 12] | Tumor volume, group Mean ([3]; day 14 post dosing) | Mean initial Tumor Volume (mm^3 ± SE) [3, 13] | further results
Cc1cc(C(=O)Nc2nc3cccc(Cl)c3n2[C@@H]2CCCCN(C(=O)/C=C/CN(C)C)C2)ccn1 [Compound A, (R,E)-N-(7-chloro-1-(1-(4-(dimethylamino)but-2-enoyl)azepan-3-yl)-1H-benzo[d]imidazol-2-yl)-2-methylisonicotinamide] | 22.58 ± 1.00 g | 5.39% | 21.43 ± 0.77 g | selective depletion of pEGFR and pMET expression | 470.34 mm^3 and 502.24 mm^3 and 547.37 mm^3 and 597.98 mm^3 and 657.77 mm^3 and 694.21 mm^3 | 578.32 mm^3 | 425.76 mm^3 and 474.70 mm^3 and 500.47 mm^3 and 718.94 mm^3 and 679.81 mm^3 and 723.63 mm^3 | 587.22 mm^3 | 447.17 mm^3 and 509.01 mm^3 and 478.72 mm^3 and 709.28 mm^3 and 723.82 mm^3 and 730.32 mm^3 | 599.72 mm^3 | 641.63 mm^3 and 591.63 mm^3 and 523.15 mm^3 and 792.15 mm^3 and 837.06 mm^3 and 800.58 mm^3 | 697.70 mm^3 | 595.65 mm^3 and 822.67 mm^3 and 611.23 mm^3 and 877.37 mm^3 and 891.82 mm^3 and 940.84 mm^3 | 789.93 mm^3 | 932.76 mm^3 and 885.77 mm^3 and 742.37 mm^3 and 1125.55 mm^3 and 1019.63 mm^3 and 1028.22 mm^3 | 955.72 mm^3 | 1063.26 ± 93.45 mm^3 | 882.62 mm^3 and 1115.99 mm^3 and 727.98 mm^3 and 1076.46 mm^3 and 1368.14 mm^3 and 1208.36 mm^3 | 1063.26 mm^3 | 578.32 ± 35.84 mm^3 | single agent response, cell viability (HCC827): only respond to Compound A; anti-tumor activity in words ([3]; 14 days, Compound A 30 mg/kg QD, INC280 10 mg/kg BID, oral, versus vehicle): not significantly different from vehicle
CNC(=O)c1ccc(-c2cnc3ncc(Cc4ccc5ncccc5c4)n3n2)cc1F [INC280, 2-fluoro-N-methyl-4-[(7-quinolin-6-yl-methyl)-imidazo[1,2-b]triazin-2-yl]benzamide] | 19.95 ± 1.58 g | −3.83% | 20.74 ± 0.79 g | selective depletion of pEGFR and pMET expression | 456.20 mm^3 and 520.06 mm^3 and 543.63 mm^3 and 640.13 mm^3 and 655.67 mm^3 and 713.33 mm^3 | 588.17 mm^3 | 531.11 mm^3 and 641.24 mm^3 and 502.64 mm^3 and 784.24 mm^3 and 667.19 mm^3 and 674.14 mm^3 | 633.43 mm^3 | 869.50 mm^3 and 753.37 mm^3 and 556.93 mm^3 and 822.50 mm^3 and 628.26 mm^3 and 834.83 mm^3 | 744.23 mm^3 | 690.94 mm^3 and 653.24 mm^3 and 589.97 mm^3 and 675.03 mm^3 and 699.40 mm^3 and 627.01 mm^3 | 655.93 mm^3 | 646.47 mm^3 and 649.16 mm^3 and 572.94 mm^3 and 510.69 mm^3 and 613.71 mm^3 and 594.99 mm^3 | 597.99 mm^3 | 688.69 mm^3 and 617.11 mm^3 and 487.07 mm^3 and 531.80 mm^3 and 432.97 mm^3 and 585.67 mm^3 | 557.22 mm^3 | 760.84 ± 81.62 mm^3 | 1030.71 mm^3 and 948.57 mm^3 and 521.81 mm^3 and 674.65 mm^3 and 598.62 mm^3 and 790.69 mm^3 | 760.84 mm^3 | 588.17 ± 39.56 mm^3 | tolerability in words ([1]; 14 day treatment, Compound A 30 mg/kg QD, INC280 10 mg/kg BID): well tolerated for rest of the study; group body weight change ([1]; day 7): −8.5%; group body weight change ([1]; day 8): −5.66%; Mean T/C (percent treated versus control; negative = regression) [3, 11]: 23%
